The text below walks through data of patent US20210220331A1, “INHIBITORS OF IRES-MEDIATED PROTEIN SYNTHESIS” (The Regents of the University of California, priority 2016, published 2021).

Molecules are shown by their SMILES. Where two headings read alike, the source gives them in different places.

Data set [1] concerns cyclin D1 and c-MYC protein. In words: Western blot of cyclin D1 and c-MYC protein levels in GBM cell lines. The following applies: LN229 and SF763 cells, 24 h. Type of data set: cell-based. On the procedure:
(§1) Western blot and quantitative RT-PCR analyses were performed as previously described (19). For Western blotting, cells or tissues were lysed in RIPA (lysis) buffer containing protease inhibitor cocktail and phosSTOP phosphatase inhibitor cocktail (Roche) and extracts resolved by SDSPAGE. Proteins were transferred to PVDF membranes and incubated with the indicated antibodies. For IRES reporter assays, the indicated mRNA reporters were cotransfected into cells with pSVβ-galactosidase to normalize for transfection efficiency as described previously (16). Cells were harvested 18 h following transfection and Renilla, firefly and β-galactosidase activities determined using the Dual-Glo Luciferase and β-galactosidase assay systems (Promega).
(B) Schematic diagrams of the dicistronic constructs used in this study. Constructs used are pRF, pRCD1F, which contains the human cyclin D1 IRES, pRmycF, containing the human c-myc IRES, pRp27F, containing the human p27Kip1 IRES and pRECMVF, containing the IRES from encephalomyocarditis virus. (C) Relative Renilla and firefly luciferase activities obtained from LN229 GBM cells transfected with the indicated constructs in the absence or presence of the inhibitor C11. […] Input and bound fractions were analyzed by immunoblotting using hnRNP A1 antibodies. […] Bound CCND1 or c-MYC RNAs were detected via RT-PCR. […]
(In western blotting, separated proteins are transferred to a membrane and probed.)

Data set [2] concerns human p27Kip1 IRES. The data set can be described thus: Dicistronic IRES mRNA reporter assay, p27Kip1 IRES. Type of data set: cell-based. The following applies: LN229 cells. On the procedure:
as §1
(B) Schematic diagrams of the dicistronic constructs used in this study. […] Input and bound fractions were analyzed by immunoblotting using hnRNP A1 antibodies. […] Bound CCND1 or c-MYC RNAs were detected via RT-PCR. […]
Several dicistronic IRES mRNA reporter constructs were utilized, shown in FIG. 1B, in which the indicated IRES sequences were inserted within the intercistronic region. LN229 cells transiently transfected with these constructs were assayed for Renilla and firefly luciferase activities, which are readouts of cap-dependent and IRES-mediated translation initiation, respectively (16).

Data set [3] concerns LN229, LN18, LN428 and SF763 GBM lines. In words: Growth inhibition of GBM cell lines (XTT). The data set is classed as cell-based. On the procedure:
Results are expressed as relative fold change in firefly (FF) luciferase activity and the mean and +S.D. are shown for three independent experiments. (B) Growth inhibition of GBM cell lines following 48 h culture in C11. Data represent mean±S.D. of three independent experiments. […] Control cell were treated with DMSO vehicle. Data are means±S.D., n=3. […] Percent apoptotic cells as determined via Annexin V staining are also shown below each graph. One of three experiments with similar results is shown.
In general terms: Tetrazolium dyes change colour on reduction, which living cells bring about.

The subject of data set [4] is Delta Max splicing. In words: Max exon 5 alternative splicing analysis (RT-PCR). The data set is classed as cell-based. The following applies: U87 cells stably expressing EGFRvIII. The protocol:
Max exon 5 alternative splicing analysis was performed as described (22). Alternative splicing was assayed using quantitative RT-PCR using primers designed to constitutive exons flanking alternative exons. Primers were: Max (85F) 5′-[…]-3′; MAX(85R) 5′-[…]-3′. Reverse primers were 32P end-labeled and PCR reactions were amplified for 22 cycles and subsequently resolved by denaturing PAGE and imaged.
(B) Schematic diagrams of the dicistronic constructs used in this study. Constructs used are pRF, pRCD1F, which contains the human cyclin D1 IRES, pRmycF, containing the human c-myc IRES, pRp27F, containing the human p27Kip1 IRES and pRECMVF, containing the IRES from encephalomyocarditis virus. (C) Relative Renilla and firefly luciferase activities obtained from LN229 GBM cells transfected with the indicated constructs in the absence or presence of the inhibitor C11. The mean and +SD are shown for three independent experiments. […] (D) RNA-pull down assays utilizing biotinylated cyclin D1 or c-MYC IRES RNAs. Cytoplasmic extracts of LN229 cells treated with C11 (50 nM) as indicated were incubated with biotinylated cyclin D1 or c-MYC IRES RNAs and precipitated with streptavidin-Sepharose beads. Input and bound fractions were analyzed by immunoblotting using hnRNP A1 antibodies. […] Bound CCND1 or c-MYC RNAs were detected via RT-PCR. […]

A short description of data set [5]: Pharmacokinetics in mice. Type of data set: in vivo. On the procedure: The pharmacokinetic properties of IRES-J007 in mice were determined. […] IRES-J007 was ˜50% bioavailable following oral delivery with a serum half-life of approximately 30 hours.
Data set [6] deals with cyclin D1 mRNA. In words: Polysome analysis of xenografted LN229 tumors, cyclin D1 mRNA.
Protocol: (§2) Cells were lysed in buffer containing 100 μg/ml cycloheximide at 4° C. Following removal of mitochondria and nuclei, supernatants were layered onto 15-50% sucrose gradients and centrifuged at 38,000 rpm for 2 h at 4° C. in an SW40 rotor (Beckman Instruments). Gradients were fractionated into 11 1-ml fractions using a density gradient fractionator (Brandel Instruments). The profiles of the gradients were monitored at 260 nm, and RNAs from individual fractions were pooled into a nonribosomal/monosomal pool and a polysomal pool. These RNAs (100 ng) were used in real time quantitative RT-PCR analysis for the indicated transcripts.
(§3) Tumor extracts were subjected to sucrose density gradient centrifugation, fractionated and pooled into nonribosomal, monosomal fraction (N, white bars) and a polysomal fraction (P, black bars). Purified RNAs were used in real-time qRT-PCR analysis to determine the distributions of cyclin D1, c-MYC and actin mRNAs across the gradients. […] Means and +S.D. values are shown for quadruplicate RT-PCR measurements. *, P<0.05.
(§4) Polysomes were separated via sucrose density gradient sedimentation and fractionated into heavy polysomal and nonribosomal/monosomal fractions.
The test system of data set [7] is subcutaneous LN229 tumors.
Protocol: TUNEL staining of tumor sections was performed using the TACSXL DAB In Situ Apoptosis Detection kit (Trevigen) according to the manufacturer's instructions (19). […] Xenograft Studies-Xenografts of LN229 cells were performed in female C.B.-17-scid (Taconic) mice as previously described (14). Tumors were harvested at autopsy for Western blot analysis. Sections of paraffin-embedded tumors on slides were processed for immunohistochemistry as previously described (14,19). Statistical analysis was done with Student's t test and ANOVA models using Systat 13 (Systat Software, Chicago, Ill.). P values of less the 0.05 were considered significant.
Left panel, apoptotic cells were identified by TUNEL assays of sections prepared from harvested tumors at day 12 following initiation of treatment regimens. Data are expressed as the number of positive apoptotic bodies divided by high power field (hpf; 10-12 hpf/tumor). Values are means+S.D., *, P<0.05.
Data set [8] deals with c-MYC mRNA. The data set can be described thus: Polysome analysis of xenografted LN229 tumors, c-MYC mRNA.
Protocol: as §2, §3, §4
The mark [9] stands for this setting: combination PP242 50 mg/kg/d + IRES-J007 20 mg/kg/d.

On to `COc1ccc(CN2C(=O)C(Cl)=C(Cl)C2=O)c(OC)c1` [Compound C11, reference compound], for which, in data set [1], the “cyclin D1 and c-MYC protein levels” value was “markedly reduced”. Also, the “IRES-mediated initiation from p27Kip1 IRES” value in data set [2] is given as “did not affect”. For the same molecule, the “CI (combination index) at ED50 ratio of 1:100” value in data set [3] (C11 at 10 and 100 nM with PP242, 48 h, LN229, LN18, LN428 and SF763) is 0.5. Moreover, the “inhibition of cell growth” value in data set [3] (inhibitor alone, concentrations up to 10 μM, 48 h, several GBM lines) was “No significant inhibition of cell growth”. Besides, in data set [4], the “Delta Max splicing” value is recorded as “did not alter”.
Consider `COc1ccc(CN2C(=O)c3ccccc3C2=O)c(OC)c1` [IRES-J007, 2-((2,4-Dimethoxyphenyl)methyl)isoindoline-1,3-dione], for which the AUC (as a rule, concentration integrated over time) in data set [5] (mouse, plasma, 20 mg/kg, PO) came out at 759 µg·h/mL; in data set [5] (mouse, plasma, IV), 1290 µg·h/mL. Also, the Cmax (usually the maximum level reached in the sampled fluid or tissue) was found to be 17.2 µg/mL in data set [5] (mouse, plasma, 20 mg/kg, PO) and 284 µg/mL in data set [5] (mouse, plasma, IV). For the same molecule, the time of peak concentration (Tmax) (as a rule, the time at which the peak concentration occurs) in data set [5] (mouse, plasma, 20 mg/kg, PO) is 7.2 h; in data set [5] (mouse, plasma, IV), 0.05 h. The half-life is 27.4 h in data set [5] (mouse, plasma, 20 mg/kg, PO, read-out: Half-life (T1/2 K10) (converted)); 13.6 h in data set [5] (mouse, plasma, IV, read-out: Half-life (T1/2 b) (converted)); approximately 30 h in data set [5] (mouse, serum, oral delivery 20 mg/kg, read-out: serum half-life (converted)). Besides, the clearance (as a rule, the rate of elimination divided by the concentration) in data set [5] (mouse, plasma, IV) is 152 mL/min/kg. Moreover, the bioavailability (commonly dose-corrected exposure relative to a reference, in per cent) in data set [5] (mouse, plasma, iv, read-out: Relative Bioavailability) was 100%; in data set [5] (mouse, plasma, po, 20 mg/kg, PO, calculated based on AUC, read-out: Relative Bioavailability) it was 40.1%; in data set [5] (mouse, plasma, po, 20 mg/kg, oral gavage 20 mg/kg, read-out: bioavailability following oral delivery), approximately 50%. Further, the trough levels result in data set [5] (single 20 mg/kg dose) is “exceeded concentrations expected to block hnRNP A1 IRES activity”. In data set [6] (IRES-J007 monotherapy), the “cyclin D1 mRNA translational efficiency” value is reported as “significant reduction”. Moreover, the “CCND1 mRNA polysomal” value in data set [6] (PP242 and IRES-J007 cotherapy) turned out to be 5%. For the same molecule, the “overall survival compared to either monotherapy” value in data set [7] (setting [9]) is given as “significantly extended”. The tumor growth delay in data set [7] (setting [9]) turned out to be 20.5 days. Further, in data set [7] (combination PP242 50 mg/kg/d + IRES-J007 20 mg/kg/d, ten consecutive days), the “inhibition of tumor growth at end of dosing period” value came to 93%. Also, in data set [7] (combination therapy), the “cyclin D1 and c-MYC protein levels in tumors” value is “Marked reductions”. Moreover, the “TUNEL staining of tumor sections (apoptosis)” value in data set [7] (combination therapy, tumors harvested at day 12) is “significant staining”. The “tumor growth vs double vehicle controls” value in data set [7] (monotherapy IRES-J007 20 mg/kg/d, ten consecutive days) is given as “did not differ significantly”. The “c-MYC mRNA translational efficiency” value in data set [8] (IRES-J007 monotherapy) is listed as “significant reduction”. In data set [8] (PP242 and IRES-J007 cotherapy), the “c-MYC mRNA polysomal” value was determined as 3%.
